The source made the active and inactive calls.
What was measured:
Albumin = Albumin (Bos taurus, UniProt P02769); experiment: Counterscreen for inhibitors of T-cell receptor (TCR)-CD3 interaction: Fluorescence-based biochemical high throughput dose response assay to identify inhibitors of T-cell receptor (TCR)-CD3 interaction using a TAMRA-labeled BSA probe.; format: functional
[1] = RKO cell viability reduction, dose response, CellTiter-Glo luminescence (AID 1117322); format: functional
[2] = cytotoxicity toward HT-29 cells – cell-based, CellTiter-Glo luminescence, IC50, dose response (AID 1117330); format: functional
[3] = cytotoxicity toward HCT116 cells – cell-based, CellTiter-Glo luminescence, IC50, dose response (AID 1117332); format: functional; settings: HCT-116
[4] = rise of 4N DNA cells, HeLa – IC50, dose response (AID 1117351); format: functional, cell-based
[5] = cytotoxicity toward Colo320 cells – cell-based, CellTiter-Glo luminescence, IC50, dose response (AID 1117334); format: functional; settings: COLO 320
[6] = SNU-C1 cell viability reduction, dose response, CellTiter-Glo luminescence (AID 1117323); format: functional, cell-based
[7] = Reduced DLD-1 viability, concentration-response, CellTiter-Glo luminescence (AID 1117352); format: functional
[8] = rise of 2N DNA cells, HeLa – IC50, dose response (AID 1117349); format: functional, cell-based
[9] = CellTiter-Glo luminescence survival assay, SW480 colon tumor line, concentration-response curve, half-maximal inhibitory concentration (AID 1117338); format: functional
[10] = HCT116 cell viability decrease, GSK3B pretreatment – CellTiter-Glo, IC50, dose response (AID 1117339); format: functional; settings: HCT-116
[11] = blockade of melanocortin 4 receptor signaling – cell-based, plate reader, cherry pick, counter-screen for LGR2 antagonist project, dose response (AID 743444); format: functional;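 further: transfected HEK 293 cells stimulated with alpha-MSH peptide; potency of inhibitors of the alpha-MSH evoked signal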
[12] = blockers of bursicon-stimulated LGR2 cAMP reporter – cell-based, HEK293, CRE-luciferase reporter, cherry pick, set 2, dose response (AID 743343); format: functional;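 further: transfected cells were stimulated with diluted bursicon conditioned medium after compound addition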
[13] = toxicity toward HepG2 liver cells – cell-based, plate reader, cherry-pick, antagonist series, cytotoxicity control, dose response (AID 743416); format: functional
[14] = A549 cell cytotoxicity, dose response, cytotoxicity control, plate reader, cherry-pick, antagonist series (AID 743412); format: functional, cell-based
[15] = HIV-1 Vif–A3G interaction blockers – biochemical, TR-FRET, GST-Vif 1-94, biotin-A3G peptide, dose response retest, primary screen (AID 1117319); format: functional;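 further: TR-FRET signal of purified GST-Vif binding a biotinylated A3G peptide; inhibitors lower the FRET signal by blocking Vif and A3G binding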
[16] = glucagon-like peptide-1 release potency in STC-1, concentration-response, half-maximal inhibitory concentration in the STC-1 line (AID 1117345); format: functional, cell-based
[17] = Potency on glucagon-like peptide 1 release, dose-response in NCI-H716 cell line, half maximal inhibitory concentration (AID 1117344); format: functional, cell-based
[18] = biological target: T1, RNA-binding protein pos-1 (Caenorhabditis elegans, UniProt G5EF15); experiment: disruptors of C. elegans POS-1 RNA interaction – biochemical, fluorescence polarization, dose response (AID 1964);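 further: purified POS-1 fused to maltose binding protein made in E. coli; potency of compounds blocking POS-1 binding to fluorescent RNA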
T1 sequence (G5EF15 whole entry): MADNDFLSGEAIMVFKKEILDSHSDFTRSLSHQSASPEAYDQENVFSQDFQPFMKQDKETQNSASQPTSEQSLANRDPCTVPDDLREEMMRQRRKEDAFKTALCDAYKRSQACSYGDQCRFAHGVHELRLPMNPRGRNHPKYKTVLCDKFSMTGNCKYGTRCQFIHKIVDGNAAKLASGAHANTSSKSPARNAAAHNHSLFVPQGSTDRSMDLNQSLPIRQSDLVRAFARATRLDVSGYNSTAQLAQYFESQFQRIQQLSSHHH

[19] = biological target: T2, Zinc finger protein mex-5 (Caenorhabditis elegans, UniProt Q9XUB2); experiment: potency of MEX-5 RNA-binding blockers – biochemical, C. elegans, fluorescence polarization, dose response (AID 1960)
T2 sequence (Q9XUB2 whole entry): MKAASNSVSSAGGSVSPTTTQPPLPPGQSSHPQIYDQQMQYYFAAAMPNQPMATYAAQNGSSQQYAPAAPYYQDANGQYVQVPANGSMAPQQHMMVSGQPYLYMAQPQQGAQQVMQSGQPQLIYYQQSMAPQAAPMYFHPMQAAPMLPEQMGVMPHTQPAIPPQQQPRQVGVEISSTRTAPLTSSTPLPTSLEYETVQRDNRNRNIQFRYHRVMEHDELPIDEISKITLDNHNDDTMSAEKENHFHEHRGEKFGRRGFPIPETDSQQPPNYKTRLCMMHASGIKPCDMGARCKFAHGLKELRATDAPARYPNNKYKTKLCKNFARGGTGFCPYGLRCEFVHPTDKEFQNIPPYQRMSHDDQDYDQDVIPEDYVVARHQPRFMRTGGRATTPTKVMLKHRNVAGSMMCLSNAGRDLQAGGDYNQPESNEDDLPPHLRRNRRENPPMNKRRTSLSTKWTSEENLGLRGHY

[20] = biological target: Tyrosyl-DNA phosphodiesterase 2 (Homo sapiens, UniProt O95551); experiment: potency against TDP2 phosphodiesterase activity – biochemical, epi absorbance, IC50, dose response (AID 743297)
cells [21] = experiment: cells
[22] = biological target: T3, Oxysterols receptor LXR-beta (Homo sapiens, UniProt P55055); format: functional, cell-based;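 further: Cell-based luminescence dose-response assay of agonist activity at LXR, run as a confirmatory counterscreen to a daf-12 agonist screen; HEK293 cells with Gal4-LXR fusion and GAL4-driven luciferase reporter; agonist potency from rising luciferase signal of a Gal4-LXR reporter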
T3 sequence (P55055 whole entry): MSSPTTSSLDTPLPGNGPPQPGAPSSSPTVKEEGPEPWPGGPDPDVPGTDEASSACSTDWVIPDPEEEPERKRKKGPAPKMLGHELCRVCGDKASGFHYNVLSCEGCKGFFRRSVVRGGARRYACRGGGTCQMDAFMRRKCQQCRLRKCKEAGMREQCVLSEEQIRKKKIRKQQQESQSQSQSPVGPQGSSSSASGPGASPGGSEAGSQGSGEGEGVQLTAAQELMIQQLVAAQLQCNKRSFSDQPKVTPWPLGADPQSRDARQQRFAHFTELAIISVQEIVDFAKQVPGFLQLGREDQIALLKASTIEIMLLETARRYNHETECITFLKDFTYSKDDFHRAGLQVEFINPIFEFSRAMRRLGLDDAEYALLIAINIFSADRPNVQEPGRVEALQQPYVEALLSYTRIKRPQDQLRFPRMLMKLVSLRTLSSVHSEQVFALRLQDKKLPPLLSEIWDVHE

cells [23] = format: functional, cell-based
cells [24] = format: functional, cell-based; remark: listed apart in the source
[25] = biological target: T4, Trace amine-associated receptor 1 (Homo sapiens, UniProt Q96RJ0); experiment: Counterscreen for agonists of the human trace amine associated receptor 1 (hTAAR1): Fluorescence-based cell-based high throughput dose response assay to identify hTAAR1 agonist that also desensitize TAAR1 receptor response.; format: functional
T4 sequence (Q96RJ0 whole entry): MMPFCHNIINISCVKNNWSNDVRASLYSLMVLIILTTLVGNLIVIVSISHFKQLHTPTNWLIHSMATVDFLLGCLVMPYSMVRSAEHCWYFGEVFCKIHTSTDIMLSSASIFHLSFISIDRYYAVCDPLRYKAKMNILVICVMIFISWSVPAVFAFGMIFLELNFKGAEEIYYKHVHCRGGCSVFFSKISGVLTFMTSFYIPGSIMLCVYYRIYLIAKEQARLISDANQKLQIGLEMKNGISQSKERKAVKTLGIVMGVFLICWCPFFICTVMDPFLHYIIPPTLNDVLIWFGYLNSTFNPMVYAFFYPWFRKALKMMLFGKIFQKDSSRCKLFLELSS

[26] = biological target: T4, Trace amine-associated receptor 1; experiment: Fluorescence-based cell-based high throughput dose response assay to identify agonists of the human trace amine associated receptor 1 (TAAR1).; format: functional
[27] = biological target: T5, Acyl-homoserine lactone acylase PvdQ (Pseudomonas aeruginosa (strain LESB58), UniProt Q9I194); experiment: PvdQ acylase enzyme activity blockers – biochemical, fluorescence, plate reader and imaging, cherry-picks, dose response (AID 493231)
T5 sequence (Q9I194 whole entry): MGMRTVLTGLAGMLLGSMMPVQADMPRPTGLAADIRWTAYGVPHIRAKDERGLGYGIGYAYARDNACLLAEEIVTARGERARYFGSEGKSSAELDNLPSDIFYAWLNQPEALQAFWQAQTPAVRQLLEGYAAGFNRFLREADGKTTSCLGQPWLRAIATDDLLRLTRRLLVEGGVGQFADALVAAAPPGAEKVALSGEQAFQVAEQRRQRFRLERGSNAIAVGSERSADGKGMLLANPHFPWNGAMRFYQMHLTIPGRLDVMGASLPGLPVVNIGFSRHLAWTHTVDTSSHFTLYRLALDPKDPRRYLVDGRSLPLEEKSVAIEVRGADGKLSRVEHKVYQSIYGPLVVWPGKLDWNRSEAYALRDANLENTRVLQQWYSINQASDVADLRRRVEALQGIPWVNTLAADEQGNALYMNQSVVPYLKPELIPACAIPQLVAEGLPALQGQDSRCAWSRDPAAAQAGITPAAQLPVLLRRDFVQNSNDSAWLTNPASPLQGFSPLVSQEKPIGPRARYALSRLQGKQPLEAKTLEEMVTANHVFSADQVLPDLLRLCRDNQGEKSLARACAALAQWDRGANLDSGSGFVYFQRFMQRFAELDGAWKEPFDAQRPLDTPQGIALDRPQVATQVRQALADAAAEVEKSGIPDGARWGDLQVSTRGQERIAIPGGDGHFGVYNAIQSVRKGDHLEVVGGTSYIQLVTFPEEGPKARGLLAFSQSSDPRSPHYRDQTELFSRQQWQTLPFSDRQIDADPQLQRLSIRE

[28] = viability loss in HEK293 cells – cell-based, plate reader, cherry-picked samples, cytotoxicity control, dose response (AID 743446); format: functional
HeLa = experiment: viability loss in HeLa cells – cell-based, ATP luminescence, cherry-pick samples, cytotoxicity control, dose response (AID 687004); format: functional
Beta-galactosidase = Beta-galactosidase (Escherichia coli, UniProt Q8VNN2); experiment: PubChem AID 485352; format: functional
[29] = biological target: T6, Type-1 angiotensin II receptor (Homo sapiens, UniProt P30556); experiment: antagonism of angiotensin II type 1 receptor – cell-based, uHTS hits, selectivity assay for APJ receptor antagonist project, dose response (AID 463214); format: functional;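 further: antagonist potency against angiotensin II stimulated AT1 response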
T6 sequence (P30556 whole entry): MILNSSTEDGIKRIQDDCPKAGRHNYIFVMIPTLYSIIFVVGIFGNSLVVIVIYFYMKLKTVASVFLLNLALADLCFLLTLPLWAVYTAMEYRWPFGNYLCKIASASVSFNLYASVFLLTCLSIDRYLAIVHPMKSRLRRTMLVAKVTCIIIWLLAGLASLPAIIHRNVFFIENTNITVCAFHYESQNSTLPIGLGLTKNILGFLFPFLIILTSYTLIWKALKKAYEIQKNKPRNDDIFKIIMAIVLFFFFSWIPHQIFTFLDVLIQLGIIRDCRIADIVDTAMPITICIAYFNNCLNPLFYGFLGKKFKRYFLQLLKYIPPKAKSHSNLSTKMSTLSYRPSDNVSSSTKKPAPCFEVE

Sequence of Albumin (P02769 whole entry): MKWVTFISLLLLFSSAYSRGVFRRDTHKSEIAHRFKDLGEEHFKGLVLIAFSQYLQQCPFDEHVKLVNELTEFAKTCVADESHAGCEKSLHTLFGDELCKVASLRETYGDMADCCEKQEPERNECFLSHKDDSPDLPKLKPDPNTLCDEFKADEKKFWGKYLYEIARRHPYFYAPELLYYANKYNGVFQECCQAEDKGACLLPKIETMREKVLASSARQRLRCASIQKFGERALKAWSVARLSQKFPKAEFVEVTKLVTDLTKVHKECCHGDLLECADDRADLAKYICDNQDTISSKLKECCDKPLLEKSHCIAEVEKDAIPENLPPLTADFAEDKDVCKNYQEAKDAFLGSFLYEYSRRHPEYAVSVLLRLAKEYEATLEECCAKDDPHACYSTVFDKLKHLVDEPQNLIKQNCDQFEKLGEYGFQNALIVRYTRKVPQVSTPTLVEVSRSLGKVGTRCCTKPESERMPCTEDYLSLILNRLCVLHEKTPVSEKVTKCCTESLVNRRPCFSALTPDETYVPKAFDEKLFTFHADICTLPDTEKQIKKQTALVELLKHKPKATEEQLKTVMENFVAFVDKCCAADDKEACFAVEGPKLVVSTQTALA
Sequence of Tyrosyl-DNA phosphodiesterase 2 (O95551 whole entry): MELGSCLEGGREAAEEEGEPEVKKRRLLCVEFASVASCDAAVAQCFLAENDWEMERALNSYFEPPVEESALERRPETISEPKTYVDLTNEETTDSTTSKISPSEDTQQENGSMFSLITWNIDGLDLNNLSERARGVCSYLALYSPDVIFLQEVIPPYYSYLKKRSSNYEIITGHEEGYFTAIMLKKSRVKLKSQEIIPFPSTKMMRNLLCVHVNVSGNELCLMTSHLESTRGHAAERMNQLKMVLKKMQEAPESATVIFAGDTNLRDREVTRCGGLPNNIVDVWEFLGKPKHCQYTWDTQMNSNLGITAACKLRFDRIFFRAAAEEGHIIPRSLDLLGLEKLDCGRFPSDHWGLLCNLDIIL
Sequence of Beta-galactosidase (Q8VNN2 whole entry): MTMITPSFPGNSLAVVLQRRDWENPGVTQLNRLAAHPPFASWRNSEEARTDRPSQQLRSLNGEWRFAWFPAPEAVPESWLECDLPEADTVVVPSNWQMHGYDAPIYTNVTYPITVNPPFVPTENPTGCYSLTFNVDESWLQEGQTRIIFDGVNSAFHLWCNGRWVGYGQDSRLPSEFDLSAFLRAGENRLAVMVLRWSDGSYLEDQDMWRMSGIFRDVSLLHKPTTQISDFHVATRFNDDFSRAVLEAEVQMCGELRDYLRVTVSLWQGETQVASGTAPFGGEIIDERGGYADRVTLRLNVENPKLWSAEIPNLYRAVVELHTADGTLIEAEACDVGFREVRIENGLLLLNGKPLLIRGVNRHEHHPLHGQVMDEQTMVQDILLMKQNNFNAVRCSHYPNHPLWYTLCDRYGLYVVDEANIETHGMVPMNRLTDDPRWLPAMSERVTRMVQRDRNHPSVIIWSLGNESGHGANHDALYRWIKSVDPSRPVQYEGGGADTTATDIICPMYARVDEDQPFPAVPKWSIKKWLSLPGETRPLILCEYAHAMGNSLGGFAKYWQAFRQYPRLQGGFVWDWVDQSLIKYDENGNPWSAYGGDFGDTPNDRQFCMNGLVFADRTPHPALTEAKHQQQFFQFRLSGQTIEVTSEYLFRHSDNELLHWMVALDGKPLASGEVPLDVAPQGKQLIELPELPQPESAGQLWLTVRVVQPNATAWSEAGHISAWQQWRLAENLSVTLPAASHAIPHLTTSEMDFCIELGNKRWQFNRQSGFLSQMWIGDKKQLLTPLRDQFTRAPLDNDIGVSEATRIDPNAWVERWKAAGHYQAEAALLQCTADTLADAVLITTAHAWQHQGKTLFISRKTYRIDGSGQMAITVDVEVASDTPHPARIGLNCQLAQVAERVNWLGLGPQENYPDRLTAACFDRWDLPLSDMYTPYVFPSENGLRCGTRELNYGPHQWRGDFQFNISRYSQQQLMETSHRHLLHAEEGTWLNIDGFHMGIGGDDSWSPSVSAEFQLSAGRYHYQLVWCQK

## O=C(NNC(=O)c1ccc2ccccc2c1O)NC1CCCCC1
Albumin
  IC50: > 94.1 µM (inactive)

## CC(C)=CCOc1ccc(/C=C/C(=O)c2ccc(OCC=C(C)C)cc2OCC(=O)O)cc1 [SOFALCONE]
[1]
  IC50: 5.53 µM (inactive)
[2]
  IC50: 5.4 µM (inactive)
[3]
  IC50: > 6.67 µM (inactive)
[4]
  IC50: > 10 µM (inactive)
[5]
  IC50: 1.55 µM (active)
[6]
  IC50: 7.44 µM (inactive)
[7]
  IC50: 5.36 µM (inactive)
[8]
  IC50: > 10 µM (inactive)
[9]
  IC50: 2.92 µM (active)
[10]
  IC50: 3.04 µM (active)

## Cc1ccc(C(=O)NC2CCCCCCC2)c(Cl)c1
[11]
  AC50: 5.7 µM (active)
[12]
  AC50: 8.04 µM (active)
[13]
  AC50: 25.6 µM (active)
[14]
  AC50: 25.8 µM (active)

## Cn1nnc(NC(=O)c2cccc(F)c2)n1
[15]
  IC50: > 100 µM (active)

## C=CC1=C(C)c2cc3[nH]c(cc4nc(cc5[nH]c(cc1n2)c(C)c5CCC(=O)O)C(CCC(=O)O)=C4C)c(C)c3C=C [PROTOPORPHYRIN DISODIUM]
[16]
  IC50: > 40 µM (inactive)
[17]
  IC50: 19.6 µM (inactive)

## CN(C)c1cccc2c1c(NS(=O)(=O)c1cn(C)cn1)nn2C
[18]
  EC50: 89.8 µM (active)
[19]
  EC50: 32.5 µM (active)
[20]
  IC50: 106 µM (inactive)

## CN(C)c1ccc(/C=C/C#N)cc1
[15]
  IC50: > 100 µM (active)

## O=P1(O)C=C(c2ccccc2)OC(c2ccccc2)=C1
Cells [21]
  EC50: > 67.5 µM (inactive)
[22]
  EC50: > 67.5 µM (inactive)

## Cc1cc(NC2=CC(=O)C(=O)c3ccccc32)no1
[20]
  IC50: 3.52 µM (active)

## O=C(NCCc1cccs1)c1ccc(Cl)cc1
Cells [23]
  EC50: > 29.9 µM (inactive)
Cells [24]
  IC50: > 29.9 µM (inactive)
[25]
  IC50: 3.48 µM (active)
[26]
  EC50: 1.19 µM (active)

## COc1ccc(-c2nc3ccccc3s2)cc1
[27]
  AC50: > 100 µM (inactive)
[11]
  AC50: 2.75 µM (active)
[12]
  AC50: 2.17 µM (active)
[13]
  AC50: > 52 µM (inactive)
[14]
  AC50: 42.9 µM (active)
[28]
  AC50: > 52 µM (inactive)

## O=C(Cc1ccccc1)N/N=C/c1cc(Br)cc(Br)c1O
Albumin
  IC50: > 94.1 µM (inactive)

## COc1ccc(C(=O)NC(=S)Nc2cccc(Cl)c2N2CCOCC2)cc1[N+](=O)[O-]
HeLa
  AC50: 28.8 µM (active)
HeLa; Homo sapiens
  AC50: > 52 µM (inactive)
Beta-galactosidase
  EC50: > 40 µM (inactive)
[29]
  IC50: > 40 µM (not active)

## OCCNc1nc(Nc2ccccc2)nc2ccccc12
Cells [23]
  EC50: > 29.9 µM (inactive)
Cells [24]
  IC50: > 29.9 µM (inactive)
[25]
  IC50: 0.2 µM (active)
[26]
  EC50: 0.0634 µM (active)

## Nc1nc2c(-c3ccc(Br)cc3)nnn2c2ccccc12
Cells [21]
  EC50: > 67.6 µM (inactive)
[22]
  EC50: > 67.6 µM (inactive)
